Experimental data published in patent US9993452B2, “Compositions and methods for treatment of inflammation” (Vireo Systems, Inc., priority 2014, dated 2018).

How the values were obtained:
TLR-7 = conditions: mouse macrophages; cited from earlier work
[1] = test system: Gram negative and Gram positive bacteria; conditions: addition to a growth medium; cited from earlier work
[2] = test system: drug resistant Staphylococcus aureus (“MRSA”); conditions: addition to a growth medium; cited from earlier work
TLR-4 = conditions: mouse macrophages; cited from earlier work
TNF-α protein = assay: Immunohistochemical staining of TNF-α protein expression in mouse macrophage cells (RAW 264.7); assay type: cell-based; conditions: 10 mM
Method: (§1) The mouse macrophage cell line, RAW 264.7 (American Tissue Type Culture Collection (ATCC); Manassas, Va.), was cultured in Dulbucco's modified Eagle's medium (DMEM; ATCC) supplemented with 10% heat inactivated fetal calf serum […] (Invitrogen; Carlsbad, Calif.), 100 μg/ml streptomycin and 100 U/ml penicillin (Invitrogen), and 2 mM L-glutamine (Invitrogen). The human T cell line, Jurkat clone E6-1 (ATCC) was cultured in RPMI-1640 medium (Invitrogen) supplemented as described above. The human monocyte cell line, THP-1 (ATCC) was cultured much like the Jurkat cultures plus the addition of 1 mM sodium pyruvate (Gibco-Invitrogen). THP-1 cells were stimulated with 200 nM of phorbol 12-myristate 13-acetate (PMA; Sigma-Aldrich, St. Louis, Mo.) for 48 hours to differentiate the cells into macrophage-like cells. Cells were then washed three times every 24 hours with fresh medium.
RAW cells were incubated with or without 10 mM creatinine (Sigma-Aldrich) for 24 or 48 hours. Staining was performed on cytospins which were fixed in cold acetone, air-dried, and rehydrated in phosphate buffered saline (PBS). Blocking was performed at room temperature for 20 minutes, followed by incubation with purified rat anti-mouse TNF-α antibody (BD Biosciences, San Diego, Calif.) overnight. […]

TNF-α mRNA [3] = assay: TNF-α mRNA expression in human T cell line Jurkat clone E6-1 (real-time RT-PCR); assay type: cell-based
Method: as §1
(§2) Dose response experiments were performed following exposure of the RAW 264.7, Jurkat, and THP-1 cells to varying doses of creatinine HCl ([…]; Sigma-Aldrich). Control cultures contained no creatinine HCl, only growth medium. A dose of 10 mM creatinine HCl was chosen for use in these studies. The 10 mM concentration is physiologically relevant to individuals supplementing with 5 grams of creatine for their regimen and then converted into creatinine.
(§3) RAW, Jurkat, and THP-1 cells were treated in 6-well plates at 80-90% confluent (4.14×10^6 cells/ml, 2.6×10^7 cells/ml, and 5.26×10^5 cells/ml, respectively). All cells were lysed in 1 ml of Trizol (Invitrogen). After homogenization, chloroform was added to samples and nucleic acids extracted per the manufacturer's instructions. Nucleic acids were precipitated with isopropyl alcohol (Fisher, Pittsburgh, Pa.). Following centrifugation, the resulting pellets were washed with 75% ethanol and air dried. RNA was re-suspended in 50 μl of UltraPure distilled water (Invitrogen). Residual DNA was removed from the samples by treatment with RQ1 DNase (Promega, Madison, Wis.) at 37° C. for 1 hour per the manufacturer's protocol. Samples were extracted with phenol:chloroform:[…] alcohol (25:24:1) (Invitrogen) and the RNA was precipitated with 1/10 volume of 3M sodium acetate (pH=5.2) and 3 volumes of 100% ethanol. Samples were frozen at […] for a minimum of 2 hours. After centrifugation, the samples were washed with 75% ethanol, air dried, and resuspended in 20 μl of UltraPure distilled water (Invitrogen) and stored at −80° C. until time of use, RNA was quantified using a NanoDrop-1000 Spectrophotometer with the program ND-1000 V3.8.1 (Thermo Fisher Scientific, Wilmington, Del.).
(§4) Reverse transcription (Improm-II Reverse Transcription System, Promega) followed by real-time PCR analysis was performed in 20 μL volumes containing 1 μl of cDNA corresponding to 40 ng of DNase-treated RNA in the RT reaction, gene specific internal primers (0.5 μM of each primer), and 1× SsoFast EvaGreen Supermix (Bio-Rad, Hercules, Calif.). The primers were synthesized by Integrated DNA Technologies (IDT, Coralville, Iowa) and have 100% sequence homology to the […] or human genome. The primer sequences are listed below in Table 1.
(§5) The PCR was performed using the following conditions: 95° C. for 30 sec, 40 cycles of 95° C. for 5 sec, and 57° C. for 5 sec using a CFX96 Real-Time Detection System (Bio-Rad), GAPDH was used as a housekeeping gene to normalize mRNA levels between samples. Data was analyzed using the Bio-Rad CFX Manager V1.6.541.1028 software (Bio-Rad). The calibrator in the experiments was the sample obtained from control-treated cells. Copy numbers of targeted mRNAs were expressed as ratios of GAPDH mRNA levels. Relative quantitation was determined by the comparative CT method (ΔΔCT method) in which the formula is expressed as: 2^−ΔΔCT(1).
(§6) RT-PCR data was analyzed by two-way analysis of variance (ANOVA) with a Bonferroni's post-test. P values≤0.05 were considered statistically significant. […]

TNF-α mRNA [4] = assay: TNF-α mRNA expression in mouse macrophage cell line RAW 264.7 (real-time RT-PCR); assay type: cell-based
Method: as §1, §2, §3, §4, §5, §6

fungi = conditions: cited from earlier work
mouse macrophages = conditions: cited from earlier work
TLR-3 = conditions: mouse macrophages; cited from earlier work
TNF-α mRNA [5] = assay: TNF-α mRNA expression in human macrophage cell line THP-1 (real-time RT-PCR); assay type: cell-based
Method: as §1, §2
RAW, Jurkat, and THP-1 cells were treated in 6-well plates at 80-90% confluent (4.14×10^6 cells/ml, 2.6×10^7 cells/ml, and 5.26×10^5 cells/ml, respectively). All cells were lysed in 1 ml of Trizol (Invitrogen). After homogenization, chloroform was added to samples and nucleic acids extracted per the manufacturer's instructions. Nucleic acids were precipitated with isopropyl alcohol (Fisher, Pittsburgh, Pa.). Following centrifugation, the resulting pellets were washed with 75% ethanol and air dried. […] After centrifugation, the samples were washed with 75% ethanol, air dried, and resuspended in 20 μl of UltraPure distilled water (Invitrogen) and stored at −80° C. until time of use, RNA was quantified using a NanoDrop-1000 Spectrophotometer with the program ND-1000 V3.8.1 (Thermo Fisher Scientific, Wilmington, Del.). […]
as §5, with “The calibrator in the experiments was the sample obtained from control-treated cells.” left out
RT-PCR data was analyzed by two-way analysis of variance (ANOVA) with a Bonferroni's post-test. […]

TLR-2 = conditions: mouse macrophages; cited from earlier work
[6] = test system: vancomycin resistant Enterococcus faecium (“VRE”); conditions: addition to a growth medium; cited from earlier work
[7] = rats, acute or chronic inflammation induced by inflammatory agents, different doses; cited from earlier work

For `CN1CC(=O)N=C1N.Cl` [creatinine HCl, creatinine hydrochloride], the TLR-7 transcript levels (TLR-7) is listed as “reduced”, the “bacteria in growth medium” value [1] is listed as “decreased” and the “bacteria in growth medium” value [2] is listed as “decreased”. For the same compound, the TLR-4 transcript levels (TLR-4) was “reduced”, the “TNF-α protein signal (immunohistochemical staining) compared to control-treated cells” value (TNF-α protein; 24 hours incubation) was “lower signals” and the “TNF-α protein signal (immunohistochemical staining) compared to control-treated cells” value (TNF-α protein; 48 hours incubation) was “lower signals”. For the same compound, the “TNF-α mRNA levels, of the control level” value (TNF-α mRNA [3]; 10 mM, 20 minutes post-exposure, Jurkat) was 25%, the “TNF-α mRNA levels” value (TNF-α mRNA [3]; 10 mM, 30 minutes post-exposure, Jurkat) was “began increasing” and the “TNF-α mRNA levels” value (TNF-α mRNA [3]; 10 mM, 60 minutes post-exposure, Jurkat) was “control levels”. For the same compound, the “TNF-α mRNA levels compared to the levels of control” value (TNF-α mRNA [3]; 10 mM, within 10 minutes of exposure, Jurkat) was 50%, the “reduction of mRNA levels in human T cells” value (TNF-α mRNA [3]; about 10 mM, 20 minutes post-treatment) was no more than 75% and the “TNF-α mRNA as compared to the control (100%)” value (“TNF-α mRNA … (100%)” for short) (TNF-α mRNA [4]; 10 mM, 10 minutes post-exposure, RAW 264.7) was 28%. For the same compound, the “TNF-α mRNA … (100%)” value (TNF-α mRNA [4]; 10 mM, 20 minutes post-exposure, RAW 264.7) was 13%, the “TNF-α mRNA levels” value (TNF-α mRNA [4]; 10 mM, 40 minutes post-exposure, RAW 264.7) was “began to increase” and the “TNF-α mRNA … (100%)” value (TNF-α mRNA [4]; 10 mM, 60 minutes post-exposure, RAW 264.7) was 47%. For the same compound, the “decrease of TNF-α mRNA expression in mouse macrophages” value (TNF-α mRNA [4]; about 10 mM, about 10 minutes post-treatment) was no less than 72%, the “reduction of TNF-α mRNA expression in mouse macrophages” value (TNF-α mRNA [4]; about 10 mM, about 20 minutes post-treatment) was no more than 87% and the growth of fungi (fungi) was “does not affect”. The cell death (mouse macrophages) was “No alterations”, the TLR-3 transcript levels (TLR-3) was “reduced” and the “TNF-α mRNA levels, of the control levels” value (TNF-α mRNA [5]; 10 mM, 10 minutes post-exposure, THP-1) was 41%. The “TNF-α mRNA levels” value (TNF-α mRNA [5]; 10 mM, 20 minutes post-exposure, THP-1) was “remained below those of control-treated cells”, the “TNF-α mRNA levels, of the control levels” value (TNF-α mRNA [5]; 10 mM, 60 minutes post-exposure, THP-1) was 50% and the TLR-2 transcript levels (TLR-2) was “reduced”. The “bacteria in growth medium” value [6] was “decreased”.
For `CN1CC(=O)N=C1N` [creatinine], the Edema [7] is given as “decreased”.
In the case of lipopolysaccharide [reference compound], the “TNF-α mRNA expression” value (TNF-α mRNA [3]; positive control, Jurkat, not shown in graphs) is reported as “significant increase”, the “TNF-α mRNA expression” value (TNF-α mRNA [4]; positive control, RAW 264.7, not shown in graphs) is reported as “significant increase” and the “TNF-α mRNA expression” value (TNF-α mRNA [5]; positive control, THP-1, not shown in graphs) is reported as “significant increase”.
